Assay results taken from PubChem BioAssay AID330 (DTP/NCI, 2004).
Several values for one entry are separate records, joined by “and”; a condition that tells them apart may be missing. Equal entries are not always repeated. Toxic doses and inconclusive results are not listed. Peptide text beside a SMILES is read from it. * marks the point of attachment. Cbz = O=C(OCc1ccccc1)*; Bn = c1ccc(C*)cc1; NHNH2 = NN*

System: P388 leukemia ip, CD2F1 mice, survival T/C
Assay: NCI In Vivo Anticancer Drug Screen. Data for tumor model P388 Leukemia (intraperitoneal) in CD2F1 (CDF1) mice
Settings: endpoint: median survival time, higher = longer survival
Method in brief: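 Mice carrying the transplanted tumor received test compound or vehicle. Survival was recorded in each group, and the value is the treated-group measurement divided by that of the vehicle-treated control group.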

[1] = dose: 50.0 mg/kg/injection, schedule: Q01DX005 (ip), vehicle: saline with Tween-80
[2] = dose: 100.0 mg/kg/injection, schedule: Q01DX005 (ip), vehicle: saline with Tween-80
[3] = dose: 200.0 mg/kg/injection, schedule: Q01DX005 (ip), vehicle: saline with Tween-80
[4] = dose: 60.0 mg/kg/injection, schedule: Q01DX005 (ip), vehicle: Klucel (hydroxypropylcellulose) (HPC)
[5] = dose: 120.0 mg/kg/injection, schedule: Q01DX005 (ip), vehicle: Klucel (hydroxypropylcellulose) (HPC)
[6] = dose: 240.0 mg/kg/injection, schedule: Q01DX005 (ip), vehicle: Klucel (hydroxypropylcellulose) (HPC)
[7] = dose: 60.0 mg/kg/injection, schedule: Q01DX005 (ip), vehicle: saline with Tween-80
[8] = dose: 240.0 mg/kg/injection, schedule: Q01DX005 (ip), vehicle: saline with Tween-80
[9] = dose: 50.0 mg/kg/injection, schedule: Q01DX009 (ip), vehicle: Klucel (hydroxypropylcellulose) (HPC)
[10] = dose: 100.0 mg/kg/injection, schedule: Q01DX009 (ip), vehicle: Klucel (hydroxypropylcellulose) (HPC)
[11] = dose: 200.0 mg/kg/injection, schedule: Q01DX009 (ip), vehicle: Klucel (hydroxypropylcellulose) (HPC)
[12] = dose: 50.0 mg/kg/injection, schedule: Q01DX005 (ip), vehicle: saline
[13] = dose: 100.0 mg/kg/injection, schedule: Q01DX005 (ip), vehicle: saline
[14] = dose: 200.0 mg/kg/injection, schedule: Q01DX005 (ip), vehicle: saline
[15] = dose: 100.0 mg/kg/injection, schedule: Q01DX001 (ip), vehicle: Klucel (hydroxypropylcellulose) (HPC)
[16] = dose: 200.0 mg/kg/injection, schedule: Q01DX001 (ip), vehicle: Klucel (hydroxypropylcellulose) (HPC)
[17] = dose: 120.0 mg/kg/injection, schedule: Q01DX005 (ip), vehicle: saline with Tween-80
[18] = dose: 50.0 mg/kg/injection, schedule: Q01DX009 (ip), vehicle: saline with Tween-80
[19] = dose: 100.0 mg/kg/injection, schedule: Q01DX009 (ip), vehicle: saline with Tween-80
[20] = dose: 25.0 mg/kg/injection, schedule: Q01DX009 (ip), vehicle: saline with Tween-80

`c1ccc(/C(=N\Nc2ccccn2)c2ccccn2)cc1` was tested, and the T/C [1] was 112 % of control, the T/C [2] was 117 % of control and the T/C [3] was 108 % of control.
`CC(N)P(=O)(O)O` (centres undefined) was tested, and the T/C (dose: 25.0 mg/kg/injection, schedule: Q01DX009 (ip), vehicle: saline) was 100 % of control, the T/C (dose: 50.0 mg/kg/injection, schedule: Q01DX009 (ip), vehicle: saline) was 115 % of control and the T/C (dose: 100.0 mg/kg/injection, schedule: Q01DX009 (ip), vehicle: saline) was 104 % of control and 87 % of control. For the same compound, the T/C (dose: 200.0 mg/kg/injection, schedule: Q01DX009 (ip), vehicle: saline) was 106 % of control and 86 % of control.
For `CCOC(=O)CC(O)(c1ccc2c(c1)OCO2)c1cc(OC)c(OC)c(OC)c1` (centres undefined), the T/C (dose: 12.5 mg/kg/injection, schedule: Q01DX005 (ip), vehicle: Klucel (hydroxypropylcellulose) (HPC)) was 100 % of control, the T/C (dose: 25.0 mg/kg/injection, schedule: Q01DX005 (ip), vehicle: Klucel (hydroxypropylcellulose) (HPC)) was 94 % of control and the T/C (dose: 50.0 mg/kg/injection, schedule: Q01DX005 (ip), vehicle: Klucel (hydroxypropylcellulose) (HPC)) was 94 % of control. For the same compound, the T/C (dose: 100.0 mg/kg/injection, schedule: Q01DX005 (ip), vehicle: Klucel (hydroxypropylcellulose) (HPC)) was 89 % of control and the T/C (dose: 200.0 mg/kg/injection, schedule: Q01DX005 (ip), vehicle: Klucel (hydroxypropylcellulose) (HPC)) was 88 % of control.
`O=C1C=C(c2ccccc2)S(=O)(=O)c2cc(O)ccc21` was tested, and the T/C [1] was 119 % of control, the T/C [2] was 114 % of control and the T/C [3] was 110 % of control.
For `CCOc1c(N=Nc2ccc(Cl)cc2)c(C)nn1C(N)=S`, the T/C [4] was 112 % of control, the T/C [5] was 112 % of control and the T/C [6] was 112 % of control.
In the case of `CC1(C)COC2(c3ccccc3)N(c3ccccc3)C(=O)ON12` (centres undefined), the T/C (dose: 60.0 mg/kg/injection, schedule: Q01DX001 (ip), vehicle: Klucel (hydroxypropylcellulose) (HPC)) is reported as 100 % of control, the T/C (dose: 120.0 mg/kg/injection, schedule: Q01DX001 (ip), vehicle: Klucel (hydroxypropylcellulose) (HPC)) is reported as 100 % of control and the T/C (dose: 240.0 mg/kg/injection, schedule: Q01DX001 (ip), vehicle: Klucel (hydroxypropylcellulose) (HPC)) is reported as 103 % of control.
For `O=S1(=O)CCC2=CC(C(F)(F)F)=CC(C(F)(F)F)=CN21`, the T/C (dose: 12.5 mg/kg/injection, schedule: Q01DX005 (ip), vehicle: saline with Tween-80) was 109 % of control, the T/C (dose: 25.0 mg/kg/injection, schedule: Q01DX005 (ip), vehicle: saline with Tween-80) was 122 % of control and the T/C [1] was 107 % of control.
`O=C(N/N=C/c1ccc(Cl)cc1)c1cc2ccccc2oc1=O` was tested, and the T/C (dose: 100.0 mg/kg/injection, schedule: Q01DX001 (ip), vehicle: saline) was 100 % of control, the T/C (dose: 200.0 mg/kg/injection, schedule: Q01DX001 (ip), vehicle: saline) was 103 % of control and the T/C (dose: 400.0 mg/kg/injection, schedule: Q01DX001 (ip), vehicle: saline) was 105 % of control.
For `O=C1c2cccc3cccc(c23)C(=O)N1CCNCCN1C(=O)c2cccc3cccc(c23)C1=O`, the T/C [7] was 91 % of control and the T/C [8] was 88 % of control.
For `CCC1(O)C[C@@]2(CCCCC2I)OC1=O` (some centres undefined), the T/C [1] was 100 % of control, the T/C [2] was 103 % of control and the T/C [3] was 106 % of control.
In the case of `COc1cc2c(cc1C(C)c1ccc(O)cc1)OCO2` (centres undefined), the T/C (dose: 50.0 mg/kg/injection, schedule: Q01DX005 (ip), vehicle: distilled water + Tween-80) is reported as 100 % of control, the T/C (dose: 100.0 mg/kg/injection, schedule: Q01DX005 (ip), vehicle: distilled water + Tween-80) is reported as 97 % of control and the T/C (dose: 200.0 mg/kg/injection, schedule: Q01DX005 (ip), vehicle: distilled water + Tween-80) is reported as 96 % of control.
`NC(CCC(=O)NCCCC(=O)O)C(=O)O` (centres undefined) was tested, and the T/C (dose: 100.0 mg/kg/injection, schedule: Q04DX002 (ip), vehicle: saline) was 105 % of control, the T/C (dose: 200.0 mg/kg/injection, schedule: Q04DX002 (ip), vehicle: saline) was 113 % of control and the T/C (dose: 400.0 mg/kg/injection, schedule: Q04DX002 (ip), vehicle: saline) was 108 % of control.
With `NNC(=O)C(Cc1ccc(O)cc1)NC(=O)C(CSCc1ccccc1)NC(=O)OCc1ccccc1` (centres undefined) (Cbz-Cys(Bn)-Tyr-NHNH2; configuration not given here) the T/C [9] was 93 % of control, the T/C [10] was 91 % of control and the T/C [11] was 89 % of control.
In the case of `CC(C)(C)C(N)=S`, the T/C [12] is reported as 103 % of control, the T/C [13] is reported as 101 % of control and the T/C [14] is reported as 101 % of control.
In the case of `Cc1ccc(N=Nc2c(C)noc2C)c(Br)c1`, the T/C [4] is reported as 93 % of control, the T/C [5] is reported as 100 % of control and the T/C [6] is reported as 92 % of control.
With `CCN(CC)c1ccc(C(NCC2CCCCO2)C(Cl)(Cl)Cl)cc1` (centres undefined) the T/C [12] was 117 % of control, the T/C [13] was 102 % of control and the T/C [14] was 100 % of control.
In the case of `Cc1ccc(OP(=O)(Oc2ccc(C)cc2)Oc2ccc(C)cc2)cc1.Cc1ccc(OP(=O)(Oc2ccc(C)cc2)Oc2ccc(C)cc2)cc1.[Cl][Co][Cl]`, the T/C [15] is reported as 96 % of control, the T/C [16] is reported as 100 % of control and the T/C (dose: 400.0 mg/kg/injection, schedule: Q01DX001 (ip), vehicle: Klucel (hydroxypropylcellulose) (HPC)) is reported as 92 % of control.
With `O=C(COc1ccccc1)NC(=S)Nc1nccs1` the T/C [7] was 96 % of control, the T/C [17] was 93 % of control and the T/C [8] was 102 % of control.
In the case of `CCn1c2ccccc2nc2cc3c(cc21)c(Cl)c(=O)c1ccccc13`, the T/C [18] is reported as 108 % of control, the T/C [19] is reported as 104 % of control and the T/C (dose: 200.0 mg/kg/injection, schedule: Q01DX009 (ip), vehicle: saline with Tween-80) is reported as 98 % of control.
In the case of `C=C1C(=O)OC2C=C(C)CC3C=C(CCC=C(C)CCC12)C(=O)O3` (centres undefined), the T/C (dose: 50.0 mg/kg/injection, schedule: Q04DX003 (ip), vehicle: saline with Tween-80) is reported as 102 % of control, the T/C (dose: 100.0 mg/kg/injection, schedule: Q04DX003 (ip), vehicle: saline with Tween-80) is reported as 104 % of control and the T/C (dose: 200.0 mg/kg/injection, schedule: Q04DX003 (ip), vehicle: saline with Tween-80) is reported as 115 % of control.
In the case of `CCOC(=O)Cc1ccc(-c2csc(Nc3ccccc3)n2)cc1`, the T/C [9] is reported as 106 % of control, the T/C [10] is reported as 98 % of control and the T/C [11] is reported as 98 % of control.
`CC(C)(C)C(=O)CC(=O)C(F)(F)C(F)(F)C(F)(F)F.[Ag]` was tested, and the T/C (dose: 6.25 mg/kg/injection, schedule: Q01DX009 (ip), vehicle: saline with Tween-80) was 119 % of control, the T/C (dose: 12.5 mg/kg/injection, schedule: Q01DX009 (ip), vehicle: saline with Tween-80) was 119 % of control and the T/C [20] was 114 % of control.
`COC(=O)C1=COC(C)C2CN3CCC4(C(=O)Nc5ccccc54)C3CC12` (centres undefined) was tested, and the T/C [7] was 101 % of control and the T/C [17] was 101 % of control.
`Cc1cc(C#N)c[n+](C)c1` was tested, and the T/C (dose: 60.0 mg/kg/injection, schedule: Q01DX005 (ip), vehicle: saline) was 108 % of control and the T/C (dose: 120.0 mg/kg/injection, schedule: Q01DX005 (ip), vehicle: saline) was 95 % of control.
For `CN(C)c1ccc(/C=C/c2nc3ccccc3s2)cc1`, the T/C (dose: 25.0 mg/kg/injection, schedule: Q01DX009 (ip), vehicle: Klucel (hydroxypropylcellulose) (HPC)) was 108 % of control, the T/C [9] was 99 % of control and the T/C [10] was 99 % of control. The T/C [11] was 98 % of control.
In the case of `CCOC(=O)c1c(C2OC(CO)C(O)C2O)cn(C)c1-c1ccccc1` (centres undefined), the T/C (dose: 50.0 mg/kg/injection, schedule: Q01DX001 (ip), vehicle: Klucel (hydroxypropylcellulose) (HPC)) is reported as 103 % of control, the T/C [15] is reported as 98 % of control and the T/C [16] is reported as 98 % of control.
For `CSCC1(CCO)OCCO1`, the T/C [20] was 100 % of control, the T/C [18] was 94 % of control and the T/C [19] was 94 % of control.
For `COc1cccc2c1OC(=O)C(S(=O)(=O)c1ccccc1)C2` (centres undefined), the T/C [1] was 97 % of control, the T/C [2] was 104 % of control and the T/C [3] was 101 % of control.
`Cn1c2cc(O)cc(O)c2c(=O)c2cccc([N+](=O)[O-])c21` was tested, and the T/C (dose: 100.0 mg/kg/injection, schedule: Q01DX001 (ip), vehicle: saline with Tween-80) was 104 % of control, the T/C (dose: 200.0 mg/kg/injection, schedule: Q01DX001 (ip), vehicle: saline with Tween-80) was 103 % of control and the T/C (dose: 400.0 mg/kg/injection, schedule: Q01DX001 (ip), vehicle: saline with Tween-80) was 101 % of control.
For `CCN1CCCC(Nc2cc(C)nc(Nc3nc4cc(Cl)c(Cl)cc4[nH]3)n2)C1` (centres undefined), the T/C (dose: 12.5 mg/kg/injection, schedule: Q01DX009 (ip), vehicle: Klucel (hydroxypropylcellulose) (HPC)) was 90 % of control.
